{"source": "ChEMBL document CHEMBL1142835", "about": "“(S,E)-N-[1-(3-heteroarylphenyl)ethyl]-3-(2-fluorophenyl)acrylamides: synthesis and KCNQ2 potassium channel opener activity” (Bioorg Med Chem Lett, 2005)", "key": {"[1]": {"molecular_target": "Potassium voltage-gated channel subfamily KQT member 2 (Mus musculus) (UniProt Q9Z351)", "sequence (Q9Z351 whole entry)": "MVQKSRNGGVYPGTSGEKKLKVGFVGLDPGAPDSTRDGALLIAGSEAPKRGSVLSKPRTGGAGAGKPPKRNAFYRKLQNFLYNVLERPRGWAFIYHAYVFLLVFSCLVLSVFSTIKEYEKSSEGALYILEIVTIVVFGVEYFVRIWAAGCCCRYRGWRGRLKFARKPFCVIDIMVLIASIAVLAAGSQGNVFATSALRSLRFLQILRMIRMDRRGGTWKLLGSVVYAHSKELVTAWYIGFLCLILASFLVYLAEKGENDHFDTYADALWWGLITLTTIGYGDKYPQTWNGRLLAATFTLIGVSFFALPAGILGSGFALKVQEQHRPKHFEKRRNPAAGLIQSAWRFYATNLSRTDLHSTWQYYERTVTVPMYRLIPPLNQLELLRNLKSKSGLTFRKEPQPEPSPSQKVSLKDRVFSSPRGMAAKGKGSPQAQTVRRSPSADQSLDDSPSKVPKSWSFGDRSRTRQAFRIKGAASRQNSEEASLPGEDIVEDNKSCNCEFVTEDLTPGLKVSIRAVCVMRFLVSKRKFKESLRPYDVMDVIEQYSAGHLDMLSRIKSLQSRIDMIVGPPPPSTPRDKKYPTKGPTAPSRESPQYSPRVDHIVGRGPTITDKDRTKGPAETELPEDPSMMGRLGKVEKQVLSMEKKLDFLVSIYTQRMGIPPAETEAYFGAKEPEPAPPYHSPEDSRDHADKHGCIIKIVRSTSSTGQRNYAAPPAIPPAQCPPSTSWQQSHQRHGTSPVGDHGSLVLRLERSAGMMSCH", "experiment": "Relative efficacy as ratio of maximal current amplitudes for compound and reference", "assay_type": "functional"}, "[2]": {"molecular_target": "Potassium voltage-gated channel subfamily KQT member 2 (Mus musculus, UniProt Q9Z351)", "sequence (Q9Z351 whole entry)": "as above", "experiment": "Effect on outward potassium currents in whole-cell patch clamp assay of HEK 293 cells expressing cloned mouse KCNQ2 channel at -40 mV", "assay_type": "functional, cell-based, HEK293"}}}
{"smiles": "CCOC(=O)Nc1ccc(NCc2ccc(F)cc2)cc1N", "values": [{"measurement": "E/Eref", "setting": "[1]", "result": 1.6}]}
{"smiles": "C[C@H](NC(=O)/C=C/c1ccccc1F)c1cccc(-c2ccccn2)c1", "values": [{"measurement": "EC50", "setting": "[2]", "result": 1200, "unit": "nM"}, {"measurement": "E/Eref", "setting": "[1]", "result": 1.8}]}
{"smiles": "C[C@H](NC(=O)/C=C/c1ccccc1)c1cccc(N2CCOCC2)c1", "values": [{"measurement": "EC50", "setting": "[2]", "result": 3200, "unit": "nM"}, {"measurement": "E/Eref", "setting": "[1]", "result": 1.4}]}
{"smiles": "C[C@H](NC(=O)/C=C/c1ccccc1F)c1cccc(-c2ccc(F)nc2)c1", "values": [{"measurement": "EC50", "setting": "[2]", "result": 10, "unit": "nM"}, {"measurement": "E/Eref", "setting": "[1]", "result": 0.85}]}
{"smiles": "C[C@H](NC(=O)/C=C/c1ccccc1F)c1cccc(-n2cccn2)c1", "values": [{"measurement": "EC50", "setting": "[2]", "result": 120, "unit": "nM"}, {"measurement": "E/Eref", "setting": "[1]", "result": 1.6}]}
{"smiles": "C[C@H](NC(=O)/C=C/c1ccccc1F)c1cccc(-n2cncn2)c1", "values": [{"measurement": "EC50", "setting": "[2]", "result": 330, "unit": "nM"}, {"measurement": "E/Eref", "setting": "[1]", "result": 1.2}]}
{"smiles": "C[C@H](NC(=O)/C=C/c1ccccc1Cl)c1ccc2c(c1)OCO2", "values": [{"measurement": "EC50", "setting": "[2]", "result": 20, "unit": "nM"}, {"measurement": "E/Eref", "setting": "[1]", "result": 1.1}]}
{"smiles": "C[C@H](NC(=O)/C=C/c1ccccc1F)c1cccc(-c2cnccn2)c1", "values": [{"measurement": "EC50", "setting": "[2]", "result": 370, "unit": "nM"}, {"measurement": "E/Eref", "setting": "[1]", "result": 1.57}]}
{"smiles": "C[C@H](NC(=O)/C=C/c1ccccc1)c1cccc(-n2cccn2)c1", "values": [{"measurement": "EC50", "setting": "[2]", "result": 1200, "unit": "nM"}, {"measurement": "E/Eref", "setting": "[1]", "result": 1.9}]}
{"smiles": "C[C@H](NC(=O)/C=C/c1ccccc1F)c1ccc2c(c1)N(CC1CC1)CCO2", "values": [{"measurement": "E/Eref", "setting": "[1]", "result": 1.83}]}
